In US12295973B2 (Fred Hutchinson Cancer Center, priority 2017, dated 2025):
Where a SMILES comes first, the peptide text is derived from it. [ ]: non-standard residue; d: D form. The star is where a group is joined. dPhe(4-NHCONH2) = NC(=O)Nc1ccc(C[C@@H](N)C(=O)O)cc1; Dihydroorotyl(S) = O=C1C[C@@H](C(=O)*)NC(=O)N1; dPhe(4-Cl) = N[C@H](Cc1ccc(Cl)cc1)C(=O)O; Phe(4-NH2) = Nc1ccc(C[C@H](N)C(=O)O)cc1; d2Nal = N[C@H](Cc1ccc2ccccc2c1)C(=O)O; Lys(iPr) = CC(C)NCCCC[C@H](N)C(=O)O; d3Pal = N[C@H](Cc1cccnc1)C(=O)O

Experiments:
[1] = tested on: mice challenged with successive doses of 5-FU; assay: Mouse survival after serial 5-fluorouracil (5-FU) challenge; assay type: in vivo; conditions: 5-FU 150 mg/kg I.P. once every 7 days, 3 times
From the text: To test whether this LHRH-Ant-mediated preservation of HSC quiescence and enhancement of HSC survival after hematopoietic stress could confer protection against chemotherapy-induced myeloablation, mice were challenged with successive doses of 5-fluorouracil (5-FU); a well-established method to functionally test HSC proliferation and self-renewal that leads to ablation of proliferating HSCs and ultimately death^29,34,47.
Reagents: Degarelix (as acetate), a LHRH-Ant (Firmagon), was resuspended in sterile water for injection and administered S.C. to mice at a dose of 40 mg/kg. To evaluate the radiomitigative effect of LHRH-Ant on survival, mice were treated subcutaneously (S.C.) with a single injection of the LHRH-Ant or a saline control solution (PBS). Degarelix was purchased from the Memorial Sloan-Kettering Cancer Center Pharmacy. […] LH from human pituitary (SIGMA) was resuspended in PBS for in vitro studies. MDV3100 (selleckchem) was resuspended in a mixture of 45% PBS, 45% PEG and 10% DMSO and administered daily to mice by oral gavage at a dose of 10 mg/kg. 5-FU (InvivoGen) was administered to mice intraperitoneally (I.P.) at a dose of 150 mg/kg once every 7 days consecutively for 3 times as previously described^34,47,49.

[2] = Hormone levels (testosterone, LH, FSH) after L-TBI; assay type: in vivo, mouse
mice exposed to L-TBI = assay: Mouse survival after lethal total body irradiation (L-TBI, 840cGy); assay type: in vivo
From the text: Description. Inhibition of sex steroids, which can be achieved in a reversible fashion pharmacologically, is a well-described strategy to promote lymphopoiesis in the BM and thymus^8,7,14,15. Although the most common method of sex steroid ablation clinically has been to use LHRH-agonists, it was described that an LHRH-Antagonist represents a more rational approach to promote immediate ablation of sex steroids for immune regeneration as it is far more rapid and abrogates the initial surge in sex steroids that LHRH-Agonist cause^16. Taken together with the impact of sex steroid inhibition on HSC function and the rapid regenerative effects of LHRH-Ant, it was hypothesized that LHRH-Ant could represent a rational non-cellular medical countermeasure for mitigating radiation injury and promoting hematopoietic regeneration when administered after hematopoietic insult. […] It was then tested if LHRH-Ant could mediate even greater mouse survival when administered multiple times.
Methods. […] B6.SJL-Ptprca Pepcb/BoyJ (CD45.1) male mice (The Jackson Laboratory) were used between 7 and 12 weeks of age for transplant. Mice were irradiated with a Gammacell 40 Irradiator (Cs-137), with an average dose rate of 95 cGy/min, in a plexiglass mouse pie cage. To assess mouse survival after radiation, mice were monitored for up to 60 days after TBI. To adjust for differences in weight, identical mice were purchased from Jackson and cages randomly distributed over different groups. All animal protocols were approved by the Memorial Sloan Kettering Cancer Center Institutional Animal Care and Use Committee.
Reagents: Degarelix (as acetate), a LHRH-Ant (Firmagon), was resuspended in sterile water for injection and administered S.C. to mice at a dose of 40 mg/kg. To evaluate the radiomitigative effect of LHRH-Ant on survival, mice were treated subcutaneously (S.C.) with a single injection of the LHRH-Ant or a saline control solution (PBS). Degarelix was purchased from the Memorial Sloan-Kettering Cancer Center Pharmacy. […] MDV3100 (selleckchem) was resuspended in a mixture of 45% PBS, 45% PEG and 10% DMSO and administered daily to mice by oral gavage at a dose of 10 mg/kg. 5-FU (InvivoGen) was administered to mice intraperitoneally (I.P.) at a dose of 150 mg/kg once every 7 days consecutively for 3 times as previously described^34,47,49.

CC(=O)N[C@H](Cc1ccc2ccccc2c1)C(=O)N[C@H](Cc1ccc(Cl)cc1)C(=O)N[C@H](Cc1cccnc1)C(=O)N[C@@H](CO)C(=O)N[C@@H](Cc1ccc(NC(=O)[C@@H]2CC(=O)NC(=O)N2)cc1)C(=O)N[C@H](Cc1ccc(NC(N)=O)cc1)C(=O)N[C@@H](CC(C)C)C(=O)N[C@@H](CCCCNC(C)C)C(=O)N1CCC[C@H]1C(=O)N[C@H](C)C(N)=O [LHRH-Ant, Degarelix] (Ac-[d2Nal][dPhe(4-Cl)][d3Pal]S[Phe(4-NH2)](Dihydroorotyl(S))[dPhe(4-NHCONH2)]L[Lys(iPr)]P[dA]-NH2)
survival after serial 5-FU challenge [1]: significantly improved survival
level of testosterone ([2]; after radiation): did not significantly lower the level of testosterone
level of FSH ([2]; irradiated mice): dramatically decreased
level of LH ([2]; irradiated mice): dramatically decreased
survival after L-TBI (mice exposed to L-TBI; LHRH-Ant given 24 h after L-TBI, vs vehicle, male mice): significant increase in survival
survival after L-TBI (mice exposed to L-TBI; administered 48 h after L-TBI): significantly enhanced mouse survival
survival after L-TBI in female mice (mice exposed to L-TBI; female mice): statistically significant benefit in survival
survival after L-TBI in surgically castrated mice (mice exposed to L-TBI; male mice castrated 5 days prior to TBI, simultaneous LHRH-Ant): restored the benefits in mouse survival
survival after L-TBI, multiple administrations (mice exposed to L-TBI; treatment 24 h and 15 days after L-TBI, vs single treatment): did not significantly enhance the survival benefit
